Measured values published in ChEMBL document CHEMBL1201862, “PubChem BioAssay data set” (2004).
Activity calls are given as the source filed them.

Columns and labels:
[1] = target: Beta-2 adrenergic receptor (Homo sapiens, UniProt P07550); experiment: beta2AR agonists driving receptor internalization, dose response, cell-based, FAP fluorogen, flow cytometry, cherry pick 1 (AID 588763); format: functional
Cytochrome P450 2D6 = Cytochrome P450 2D6 (Homo sapiens, UniProt P10635);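 note: CYP2D6 member of a cytochrome P450 panel assay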
Cytochrome P450 2D6, sequence (P10635 whole entry): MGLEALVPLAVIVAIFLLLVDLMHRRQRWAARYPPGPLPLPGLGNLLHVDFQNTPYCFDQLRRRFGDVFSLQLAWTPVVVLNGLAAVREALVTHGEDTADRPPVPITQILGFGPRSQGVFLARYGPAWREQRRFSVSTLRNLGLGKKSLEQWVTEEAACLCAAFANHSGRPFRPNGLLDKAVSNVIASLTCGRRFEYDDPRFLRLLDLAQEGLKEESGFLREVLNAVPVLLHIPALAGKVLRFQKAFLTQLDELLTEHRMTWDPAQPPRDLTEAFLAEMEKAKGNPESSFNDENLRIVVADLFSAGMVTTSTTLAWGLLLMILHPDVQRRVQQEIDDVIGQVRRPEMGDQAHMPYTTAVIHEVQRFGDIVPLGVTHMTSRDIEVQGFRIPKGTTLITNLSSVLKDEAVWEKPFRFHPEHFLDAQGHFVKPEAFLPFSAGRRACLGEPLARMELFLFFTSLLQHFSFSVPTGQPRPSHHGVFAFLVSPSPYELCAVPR

Cytochrome P450 2C19 = Cytochrome P450 2C19 (Homo sapiens, UniProt P33261); experiment: Cytochrome panel assay with activity outcomes. Panel member name: p450-cyp2c19 Compounds with AC50 equal or less than 10 uM are considered active; format: functional; settings: read-out: AC50
Ephrin type-A receptor 4 = Ephrin type-A receptor 4 (Mus musculus, UniProt Q03137); experiment: inhibitors of EphA4 binding to KYL peptide, primary screen, biochemical, colorimetric, mouse EphA4 (AID 689); format: functional
Ephrin type-A receptor 4, sequence (Q03137 whole entry): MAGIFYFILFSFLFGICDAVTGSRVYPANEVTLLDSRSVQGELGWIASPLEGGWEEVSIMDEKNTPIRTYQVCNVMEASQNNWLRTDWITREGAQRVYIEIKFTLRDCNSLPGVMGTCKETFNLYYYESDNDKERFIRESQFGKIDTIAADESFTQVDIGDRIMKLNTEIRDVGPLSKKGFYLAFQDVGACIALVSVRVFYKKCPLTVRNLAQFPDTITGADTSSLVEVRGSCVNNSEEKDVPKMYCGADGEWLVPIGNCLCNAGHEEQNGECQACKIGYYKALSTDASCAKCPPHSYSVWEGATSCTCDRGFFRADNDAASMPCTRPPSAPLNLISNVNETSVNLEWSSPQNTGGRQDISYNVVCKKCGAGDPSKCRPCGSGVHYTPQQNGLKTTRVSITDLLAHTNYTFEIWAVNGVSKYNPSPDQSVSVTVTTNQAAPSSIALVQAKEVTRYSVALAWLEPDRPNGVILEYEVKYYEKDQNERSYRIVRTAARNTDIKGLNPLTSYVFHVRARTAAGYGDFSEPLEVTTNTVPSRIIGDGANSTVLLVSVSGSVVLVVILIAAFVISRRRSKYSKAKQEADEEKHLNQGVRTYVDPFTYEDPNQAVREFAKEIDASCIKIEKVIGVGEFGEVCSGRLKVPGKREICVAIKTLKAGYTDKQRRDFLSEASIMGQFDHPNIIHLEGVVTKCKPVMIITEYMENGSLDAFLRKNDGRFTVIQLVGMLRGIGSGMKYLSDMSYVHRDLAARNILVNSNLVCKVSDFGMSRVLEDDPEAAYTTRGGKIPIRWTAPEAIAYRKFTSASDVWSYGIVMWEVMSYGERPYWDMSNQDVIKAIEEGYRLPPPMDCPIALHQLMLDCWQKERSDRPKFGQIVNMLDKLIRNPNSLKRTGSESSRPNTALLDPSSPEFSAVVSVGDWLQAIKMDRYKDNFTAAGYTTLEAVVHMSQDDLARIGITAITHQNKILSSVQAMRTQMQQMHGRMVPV

Cytochrome P450 3A4 = Cytochrome P450 3A4 (Homo sapiens, UniProt P08684);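 note: CYP3A4 tested as one member of a cytochrome P450 panel screen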
[2] = target: Peroxisome proliferator-activated receptor gamma/Nuclear receptor coactivator 2 (Homo sapiens, UniProt P37231); experiment: (§1) TR-FRET dose response biochemical High Throughput Screening assay for agonists of the steroid receptor coactivator 2 (SRC-2) recruitment by the peroxisome proliferator-activated receptor gamma (PPAR gamma): non-selective agonists. [Related pubchem assays: 1297, 1032 ]; format: functional
[3] = target: Peroxisome proliferator-activated receptor gamma/Nuclear receptor coactivator 3 (Homo sapiens, UniProt P37231); experiment: as §1, with “3 (SRC-3)” for “2 (SRC-2)”, “1301 (Confirmation screen.), 1048 (Primary screen.)]” for “1297, 1032 ]”; format: functional
[4] = target: Peroxisome proliferator-activated receptor gamma/Nuclear receptor coactivator 1 (Homo sapiens, UniProt P37231); experiment: as §1, with “1 (SRC-1)” for “2 (SRC-2)”, “assays (depositor defined):AID1300, AID1808, AID504735, AID631]” for “assays: 1297, 1032 ]”; format: protein assay
[5] = target: T1, Heat shock factor protein 1 (Mus musculus, UniProt P38532); experiment: HSF1 potentiators in luciferase reporter cells, confirmation, cell-based, NIH3T3, luminescence, dose retest (AID 435004); format: functional;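 note: stress induced by proteasome inhibitor MG132 added 30 min after compound; luciferase reporter driven by HSF1 response element in NIH3T3 cells; actives raise luminescence as potentiators of the MG132 stress response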
T1 sequence (P38532 whole entry): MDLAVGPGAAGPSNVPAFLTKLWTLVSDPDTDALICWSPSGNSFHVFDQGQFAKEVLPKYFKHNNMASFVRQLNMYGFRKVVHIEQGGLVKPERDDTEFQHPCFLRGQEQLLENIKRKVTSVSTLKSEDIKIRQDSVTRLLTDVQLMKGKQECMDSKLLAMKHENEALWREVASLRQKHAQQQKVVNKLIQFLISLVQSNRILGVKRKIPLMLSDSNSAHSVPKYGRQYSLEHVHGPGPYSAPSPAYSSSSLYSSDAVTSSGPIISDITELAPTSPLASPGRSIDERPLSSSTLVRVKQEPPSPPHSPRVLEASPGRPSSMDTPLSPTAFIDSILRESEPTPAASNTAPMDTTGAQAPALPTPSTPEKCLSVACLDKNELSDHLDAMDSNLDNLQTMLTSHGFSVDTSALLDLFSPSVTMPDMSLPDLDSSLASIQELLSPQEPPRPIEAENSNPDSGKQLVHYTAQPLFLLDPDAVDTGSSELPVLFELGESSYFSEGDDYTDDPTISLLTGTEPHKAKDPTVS

Escherichia coli [6] = experiment: microbe, parasite or virus in culture
Escherichia coli [7] = experiment: microbe, parasite or virus in culture; remark: listed apart in the source
CAAX prenyl protease 2 = CAAX prenyl protease 2 (Homo sapiens, UniProt Q9Y256); experiment: human Rce1 protease inhibitors, dose response, biochemical, yeast membranes, quenched-peptide fluorescence, cherry-pick (AID 588849)
CAAX prenyl protease 2, sequence (Q9Y256 whole entry): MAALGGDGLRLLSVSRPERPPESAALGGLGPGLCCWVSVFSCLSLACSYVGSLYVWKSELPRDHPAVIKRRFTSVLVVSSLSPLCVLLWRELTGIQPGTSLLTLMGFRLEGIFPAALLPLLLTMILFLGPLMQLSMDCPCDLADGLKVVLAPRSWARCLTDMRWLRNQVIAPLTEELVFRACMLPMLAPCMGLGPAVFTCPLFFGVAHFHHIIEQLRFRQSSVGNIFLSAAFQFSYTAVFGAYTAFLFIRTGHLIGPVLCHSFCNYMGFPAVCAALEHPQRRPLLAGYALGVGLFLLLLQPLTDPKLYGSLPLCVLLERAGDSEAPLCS

Trypsin = Trypsin (Sus scrofa, UniProt P00761); experiment: porcine trypsin inhibitors, dose response, selectivity assay for Rce1 protease inhibitor project, biochemical, quenched peptide fluorescence, cherry-pick (AID 488789)
HEK293 = experiment: cells; settings: Homo sapiens;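 note: cells exposed to compound for 14 hours overnight before viability readout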
Tumor necrosis factor = Tumor necrosis factor (Homo sapiens, UniProt P01375); experiment: TNFa-triggered NF-kB activation inhibitors, SAR follow-up, cell-based, revised (AID 2337); format: functional
Tumor necrosis factor, sequence (P01375 whole entry): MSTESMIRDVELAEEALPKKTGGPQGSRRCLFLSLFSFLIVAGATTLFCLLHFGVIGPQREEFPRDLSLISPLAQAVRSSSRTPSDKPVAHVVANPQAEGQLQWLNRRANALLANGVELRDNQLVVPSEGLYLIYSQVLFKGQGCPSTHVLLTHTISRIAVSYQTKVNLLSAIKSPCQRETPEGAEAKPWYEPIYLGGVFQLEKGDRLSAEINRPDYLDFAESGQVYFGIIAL

[8] = target: Dual specificity tyrosine-phosphorylation-regulated kinase 1A (Rattus norvegicus, UniProt Q63470); format: biochemical, Homo sapiens
Caspase-3 = target: T2, Caspase-3 (Homo sapiens, UniProt P42574); experiment: SAR Analysis of small molecule inhibitors of Sentrin-specific proteases (SENPs) using a Caspase-3 Selectivity assay. [Related pubchem assays (depositor defined):AID2540, AID2599, AID434973, AID489001]; format: functional
T2 sequence (P42574 whole entry): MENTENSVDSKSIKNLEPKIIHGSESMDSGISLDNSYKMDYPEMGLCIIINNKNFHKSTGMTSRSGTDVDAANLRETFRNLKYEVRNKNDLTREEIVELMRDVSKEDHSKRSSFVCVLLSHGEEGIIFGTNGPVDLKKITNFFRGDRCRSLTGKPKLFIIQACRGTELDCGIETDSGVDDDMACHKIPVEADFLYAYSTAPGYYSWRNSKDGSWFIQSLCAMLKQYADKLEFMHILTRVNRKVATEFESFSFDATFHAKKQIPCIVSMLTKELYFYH

[9] = target: T3, Sentrin-specific protease 7 (Homo sapiens, UniProt Q9BQF6); experiment: SENP7 protease inhibitors, SAR follow-up, biochemical, luminescence (AID 504497); format: functional
T3 sequence (Q9BQF6 whole entry): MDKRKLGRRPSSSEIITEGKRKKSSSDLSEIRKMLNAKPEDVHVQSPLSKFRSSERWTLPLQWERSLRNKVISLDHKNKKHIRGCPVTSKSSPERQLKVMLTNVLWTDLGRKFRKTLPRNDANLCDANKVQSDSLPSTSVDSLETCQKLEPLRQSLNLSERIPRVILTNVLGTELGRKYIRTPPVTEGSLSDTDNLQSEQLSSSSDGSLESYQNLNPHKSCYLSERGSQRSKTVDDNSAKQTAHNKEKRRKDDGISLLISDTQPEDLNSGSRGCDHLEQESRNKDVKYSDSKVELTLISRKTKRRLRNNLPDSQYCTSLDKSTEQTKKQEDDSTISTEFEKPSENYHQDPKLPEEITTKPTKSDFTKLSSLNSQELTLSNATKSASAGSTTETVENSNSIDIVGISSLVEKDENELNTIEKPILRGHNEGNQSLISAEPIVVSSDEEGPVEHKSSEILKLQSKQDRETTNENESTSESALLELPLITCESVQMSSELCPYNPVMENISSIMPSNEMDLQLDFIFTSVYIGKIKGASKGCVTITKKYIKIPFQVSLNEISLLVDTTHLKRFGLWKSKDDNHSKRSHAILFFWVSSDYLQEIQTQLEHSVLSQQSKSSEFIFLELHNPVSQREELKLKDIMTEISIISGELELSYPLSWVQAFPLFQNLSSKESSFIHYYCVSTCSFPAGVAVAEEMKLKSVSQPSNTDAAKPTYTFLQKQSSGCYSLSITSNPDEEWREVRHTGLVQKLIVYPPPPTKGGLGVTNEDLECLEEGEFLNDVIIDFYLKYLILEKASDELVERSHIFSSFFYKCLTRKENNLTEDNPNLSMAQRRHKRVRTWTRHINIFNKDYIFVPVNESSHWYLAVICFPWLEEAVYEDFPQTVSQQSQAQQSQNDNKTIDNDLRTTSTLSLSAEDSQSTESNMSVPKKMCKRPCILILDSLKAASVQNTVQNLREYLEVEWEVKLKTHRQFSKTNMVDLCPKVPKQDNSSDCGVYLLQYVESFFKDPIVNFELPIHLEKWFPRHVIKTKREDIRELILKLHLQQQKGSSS

[10] = target: T4, Sentrin-specific protease 8 (Homo sapiens, UniProt Q96LD8); experiment: SENP8 protease inhibitors, SAR follow-up, biochemical, luminescence (AID 504501); format: functional
T4 sequence (Q96LD8 whole entry): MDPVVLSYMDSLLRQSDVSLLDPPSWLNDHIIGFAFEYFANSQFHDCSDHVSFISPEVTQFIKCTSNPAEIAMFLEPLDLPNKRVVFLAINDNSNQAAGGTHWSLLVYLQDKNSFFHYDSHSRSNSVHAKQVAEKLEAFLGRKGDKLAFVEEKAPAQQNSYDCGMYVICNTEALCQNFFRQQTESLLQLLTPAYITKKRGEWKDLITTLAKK

[11] = target: T5, Sentrin-specific protease 6 (Homo sapiens, UniProt Q9GZR1); experiment: SAR Analysis of small molecule inhibitors of Sentrin-specific protease 6 (SENP6) using a Luminescent assay. [Related pubchem assays (depositor defined):AID2582, AID2599]; format: functional
T5 sequence (Q9GZR1 whole entry): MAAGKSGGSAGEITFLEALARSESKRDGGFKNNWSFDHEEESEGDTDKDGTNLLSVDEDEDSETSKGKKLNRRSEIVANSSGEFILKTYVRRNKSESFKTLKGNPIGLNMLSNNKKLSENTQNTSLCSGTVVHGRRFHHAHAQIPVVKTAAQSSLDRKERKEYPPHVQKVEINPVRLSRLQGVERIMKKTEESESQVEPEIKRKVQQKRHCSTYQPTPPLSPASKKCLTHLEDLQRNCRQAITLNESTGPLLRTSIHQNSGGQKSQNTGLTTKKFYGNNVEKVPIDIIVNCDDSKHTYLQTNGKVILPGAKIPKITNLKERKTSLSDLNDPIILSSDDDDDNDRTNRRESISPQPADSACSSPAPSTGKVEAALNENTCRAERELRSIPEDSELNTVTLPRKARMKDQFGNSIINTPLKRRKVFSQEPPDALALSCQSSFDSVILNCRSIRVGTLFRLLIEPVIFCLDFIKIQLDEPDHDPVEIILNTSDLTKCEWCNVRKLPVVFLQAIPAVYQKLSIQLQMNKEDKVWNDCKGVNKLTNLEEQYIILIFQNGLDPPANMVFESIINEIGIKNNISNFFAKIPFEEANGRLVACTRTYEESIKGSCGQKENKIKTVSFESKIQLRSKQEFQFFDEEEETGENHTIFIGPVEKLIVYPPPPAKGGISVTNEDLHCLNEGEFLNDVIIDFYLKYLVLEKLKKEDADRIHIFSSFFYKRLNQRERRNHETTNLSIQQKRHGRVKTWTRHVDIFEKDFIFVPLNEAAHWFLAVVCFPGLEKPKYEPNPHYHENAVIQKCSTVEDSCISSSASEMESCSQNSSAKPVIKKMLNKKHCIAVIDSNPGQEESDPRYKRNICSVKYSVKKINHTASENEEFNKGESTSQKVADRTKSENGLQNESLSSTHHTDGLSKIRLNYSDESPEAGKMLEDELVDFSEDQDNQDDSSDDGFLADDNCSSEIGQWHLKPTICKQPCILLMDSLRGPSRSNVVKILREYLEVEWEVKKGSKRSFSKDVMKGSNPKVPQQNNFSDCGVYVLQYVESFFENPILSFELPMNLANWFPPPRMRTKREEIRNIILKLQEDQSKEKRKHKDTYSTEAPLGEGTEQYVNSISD

Exodeoxyribonuclease V = Exodeoxyribonuclease V (Escherichia coli (strain K12), UniProt P04993+P07648+P08394); experiment: E. coli RecBCD inhibitors, dose response, counter-screen for AddAB inhibitor project, absorbance, V66 E. coli, mutant T4 phage (AID 492957); format: functional, cell-based, Escherichia coli str. K-12 substr. MG1655
Exodeoxyribonuclease V, sequence (P04993 whole entry): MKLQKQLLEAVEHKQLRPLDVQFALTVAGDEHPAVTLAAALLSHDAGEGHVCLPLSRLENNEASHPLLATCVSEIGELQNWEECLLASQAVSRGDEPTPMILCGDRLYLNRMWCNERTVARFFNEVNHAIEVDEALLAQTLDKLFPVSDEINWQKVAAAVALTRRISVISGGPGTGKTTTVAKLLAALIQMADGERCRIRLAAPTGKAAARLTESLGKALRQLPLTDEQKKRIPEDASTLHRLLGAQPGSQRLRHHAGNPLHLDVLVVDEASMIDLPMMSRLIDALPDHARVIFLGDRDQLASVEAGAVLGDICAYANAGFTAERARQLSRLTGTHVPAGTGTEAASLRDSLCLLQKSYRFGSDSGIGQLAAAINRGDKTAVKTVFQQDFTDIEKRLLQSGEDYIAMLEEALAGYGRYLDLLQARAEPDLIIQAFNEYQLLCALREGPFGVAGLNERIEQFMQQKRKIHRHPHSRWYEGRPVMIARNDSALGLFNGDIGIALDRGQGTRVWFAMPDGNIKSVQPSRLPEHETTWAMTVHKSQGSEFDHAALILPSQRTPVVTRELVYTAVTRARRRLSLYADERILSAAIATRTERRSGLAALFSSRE
Exodeoxyribonuclease V, sequence (P07648 whole entry): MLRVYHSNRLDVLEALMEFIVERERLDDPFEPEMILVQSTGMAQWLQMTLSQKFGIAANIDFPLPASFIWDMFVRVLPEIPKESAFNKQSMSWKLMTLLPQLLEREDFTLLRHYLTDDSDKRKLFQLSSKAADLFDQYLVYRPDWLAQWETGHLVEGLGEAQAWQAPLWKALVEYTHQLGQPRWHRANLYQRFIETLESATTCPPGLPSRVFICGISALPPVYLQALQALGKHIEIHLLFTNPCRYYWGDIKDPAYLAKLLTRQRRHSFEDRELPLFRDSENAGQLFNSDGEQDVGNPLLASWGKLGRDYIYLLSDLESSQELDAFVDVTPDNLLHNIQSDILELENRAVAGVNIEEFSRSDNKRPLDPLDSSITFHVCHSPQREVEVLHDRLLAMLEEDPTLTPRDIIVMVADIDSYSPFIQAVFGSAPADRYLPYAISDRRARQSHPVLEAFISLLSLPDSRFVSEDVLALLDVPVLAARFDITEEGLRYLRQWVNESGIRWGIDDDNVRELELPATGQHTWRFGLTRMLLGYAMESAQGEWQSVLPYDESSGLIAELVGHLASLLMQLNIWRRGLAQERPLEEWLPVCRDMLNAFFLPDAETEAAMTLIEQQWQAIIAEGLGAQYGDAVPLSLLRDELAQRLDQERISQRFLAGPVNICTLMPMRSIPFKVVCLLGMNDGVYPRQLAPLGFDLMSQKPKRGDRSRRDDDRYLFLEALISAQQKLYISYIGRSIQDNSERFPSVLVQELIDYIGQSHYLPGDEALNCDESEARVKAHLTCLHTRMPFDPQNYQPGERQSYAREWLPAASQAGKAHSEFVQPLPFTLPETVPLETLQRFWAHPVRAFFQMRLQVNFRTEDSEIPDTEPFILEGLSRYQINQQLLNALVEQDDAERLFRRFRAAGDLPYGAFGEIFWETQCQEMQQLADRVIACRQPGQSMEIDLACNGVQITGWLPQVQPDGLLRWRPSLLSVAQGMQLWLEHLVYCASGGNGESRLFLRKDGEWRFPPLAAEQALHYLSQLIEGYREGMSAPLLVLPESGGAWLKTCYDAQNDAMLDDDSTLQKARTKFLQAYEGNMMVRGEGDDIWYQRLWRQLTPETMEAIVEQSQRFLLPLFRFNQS
Exodeoxyribonuclease V, sequence (P08394 whole entry): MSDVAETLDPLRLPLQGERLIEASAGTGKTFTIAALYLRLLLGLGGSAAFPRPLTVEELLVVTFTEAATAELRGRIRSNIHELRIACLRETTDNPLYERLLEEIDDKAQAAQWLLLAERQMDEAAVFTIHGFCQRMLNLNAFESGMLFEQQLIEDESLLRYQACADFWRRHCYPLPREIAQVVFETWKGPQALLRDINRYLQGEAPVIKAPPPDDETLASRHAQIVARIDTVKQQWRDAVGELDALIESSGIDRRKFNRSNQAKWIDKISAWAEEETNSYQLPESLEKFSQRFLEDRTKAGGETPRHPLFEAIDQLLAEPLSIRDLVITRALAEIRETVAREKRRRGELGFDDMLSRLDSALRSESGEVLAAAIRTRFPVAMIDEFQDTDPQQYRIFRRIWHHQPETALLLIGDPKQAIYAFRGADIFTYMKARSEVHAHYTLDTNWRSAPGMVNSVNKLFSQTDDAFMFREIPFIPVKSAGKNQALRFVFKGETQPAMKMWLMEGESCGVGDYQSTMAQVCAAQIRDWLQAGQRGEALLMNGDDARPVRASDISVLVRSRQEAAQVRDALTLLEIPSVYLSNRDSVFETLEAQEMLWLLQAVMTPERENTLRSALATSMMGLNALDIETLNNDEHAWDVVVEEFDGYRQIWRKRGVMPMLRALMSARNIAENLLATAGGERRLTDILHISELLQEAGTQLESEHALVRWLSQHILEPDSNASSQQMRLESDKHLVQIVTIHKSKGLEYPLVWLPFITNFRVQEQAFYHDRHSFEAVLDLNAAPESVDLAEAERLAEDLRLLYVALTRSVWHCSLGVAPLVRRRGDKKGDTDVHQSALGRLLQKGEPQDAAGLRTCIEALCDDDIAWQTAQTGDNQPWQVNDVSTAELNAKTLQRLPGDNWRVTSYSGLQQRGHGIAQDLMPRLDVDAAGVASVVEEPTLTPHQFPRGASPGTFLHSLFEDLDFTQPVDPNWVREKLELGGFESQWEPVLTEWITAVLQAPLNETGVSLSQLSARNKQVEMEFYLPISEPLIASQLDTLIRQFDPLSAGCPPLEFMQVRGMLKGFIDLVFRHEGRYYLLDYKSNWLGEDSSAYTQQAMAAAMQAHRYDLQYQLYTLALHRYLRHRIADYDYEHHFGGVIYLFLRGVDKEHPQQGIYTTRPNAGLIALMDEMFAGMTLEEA

[12] = Counterscreen for AddAB inhibitors: absorbance-based bacterial cell-based high throughput dose response assay for inhibitors of bacterial viability. [Related pubchem assays (depositor defined):AID435030, AID449728, AID449731, AID488942, AID488955, AID488956]; format: functional

Q: Which EC50 [1] does the source give for `NC(=O)CC(NC(=O)Cc1ccc(Cl)cc1)c1ccc(NCCCN2CCCC2=O)c([N+](=O)[O-])c1` (centres undefined) here?
A: 2.2 µM (active)

Q: What does the source list for `COc1cc(NC(=O)c2ccc(COCC(F)(F)F)cc2)cc(OC)c1OC`?
A: AC50 (Cytochrome P450 2D6): inconclusive; AC50 (Cytochrome P450 2C19): 28.2 µM (inconclusive); IC50 (Ephrin type-A receptor 4): > 100 µM (not active); AC50 (Cytochrome P450 3A4): 22.4 µM (inconclusive)

Q: What does the source list for `CCN(CC)CCCNC(=O)CSc1c2c(nc3cc(Cl)ccc13)CCCC2`?
A: EC50 [2]: > 79.4 µM (not active); EC50 [3]: > 79.4 µM (not active); EC50 [4]: > 79.4 µM (inactive); EC50 [5]: 17.3 µM (active)

Q: Which AC50 (Escherichia coli [6]) does the source give for `CC1(C)CC(CCNS(=O)(=O)c2ccccc2)(c2ccccc2)CCO1` (centres undefined) here?
A: 52.9 µM (active)

Q: And the AC50 (Escherichia coli [7])?
A: 251 µM (active)

Q: With `C=CCN1C=C2C(=O)C(C)(OC(=O)c3ccc(OC)cc3)C(=O)C(c3ccco3)=C2C=C1CCCC` (centres undefined) as the compound, how does the AC50 (Escherichia coli [6]) read?
A: 22.3 µM (active)

Q: With `Cc1c(Nc2ncnc3c2cnn3-c2ccccc2)c(=O)n(-c2ccccc2)n1C` as the compound, how does the AC50 (Escherichia coli [7]) read?
A: 51.5 µM (active)

Q: With `COC(=O)c1c(-c2ccc(OC)cc2)oc2ccc(-c3ccc(OC)nc3)cc12` as the compound, how does the AC50 (CAAX prenyl protease 2) read?
A: 1.15 µM (active)

Q: What about the AC50 (Trypsin) of the same compound?
A: 5.18 µM (active)

Q: Which IC50 (HEK293) does the source give for `O=C(Nc1ccc(F)cc1)c1ccc(CN2CCCCC2)cc1` here?
A: > 20 µM (inactive)

Q: And the IC50 (Tumor necrosis factor)?
A: > 20 µM (inactive)

Q: With `Cc1ccc(SCc2noc(C(=O)NCC3CCCO3)c2C(=O)O)cc1C` (centres undefined) as the compound, how does the AC50 (Cytochrome P450 2D6) read?
A: inconclusive

Q: With `O=C1NC(=S)SC1=Cc1ccc(F)cc1` as the compound, how does the AC50 [8] read?
A: 0.622 µM (active)

Q: For `O=[N+]([O-])c1cc(/C=N/Nc2cc(N3CCOCC3)nc(N3CCOCC3)n2)cc2c1OCO2`, which IC50 (Caspase-3) is on record?
A: > 99 µM (inactive)

Q: What about the IC50 [9] of the same compound?
A: > 99 µM (inactive)

Q: And the IC50 [10]?
A: > 99 µM (inactive)

Q: And the IC50 [11]?
A: > 99 µM (inactive)

Q: With `CC(C)OC(=O)c1c(-c2ccc(Br)cc2)csc1NC(=O)C1CCC1` as the compound, how does the IC50 (Caspase-3) read?
A: 1.98 µM (active)

Q: What about the IC50 [9] of the same compound?
A: 1.53 µM (active)

Q: What about the IC50 [10] of the same compound?
A: 1.58 µM (active)

Q: And the IC50 [11]?
A: 1.22 µM (active)

Q: For `CCn1cc(C(=O)O)c(=O)c2cnc(N3CCN(C(=S)Nc4ccccc4C(F)(F)F)CC3)nc21`, which IC50 (Exodeoxyribonuclease V) is on record?
A: > 39.5 µM (inactive)

Q: And the IC50 [12]?
A: 3.33 µM (active)
